Assay results published in US20110294778A1, “HEPATITIS C INHIBITOR COMPOUNDS” (priority 2009, published 2011).

Assays:
[1] = system: HCV genotype 1a (strain H77) subgenomic replicon with NS3 resistance mutation R155K in Huh-7 cells; assay: HCV replicon RNA replication assay (NS3 protease variants), genotype 1a R155K; assay type: cell-based; conditions: Hepatitis C virus, Huh-7, 72 h, read-out: R155K 1a EC50 (nM)
[2] = system: HCV genotype 1b (Con-1) subgenomic replicon with NS3 resistance mutation D168V in Huh-7 cells; assay: HCV replicon RNA replication assay (NS3 protease variants), genotype 1b D168V; assay type: cell-based; conditions: Hepatitis C virus, Huh-7, 72 h, read-out: D168V 1b EC50 (nM)

COc1ccc2c(O[C@@H]3C[C@H]4C(=O)N[C@]5(C(=O)NS(=O)(=O)C6(C)CC6)C[C@H]5/C=C\CCCCC[C@H](NC(=O)N5CCCC5)C(=O)N4C3)cc(OC(C)C)nc2c1C [Compound 2020, (2R,6S,12Z,13aS,14aR,16aS)-2-{[7-methoxy-8-methyl-2-(propan-2-yloxy)quinolin-4-yl]oxy}-N-[(1-methylcyclopropyl)sulfonyl]-5,16-dioxo-6-[(pyrrolidin-1-ylcarbonyl)amino]-1,2,3,6,7,8,9,10,11,13a,14,15,16,16a-tetradecahydrocyclopropa[e]pyrrolo[1,2-a][1,4]diazacyclopentadecine-14a(5H)-carboxamide]
EC50 [1]: 4 nM
EC50 [2]: 1.4 nM

COc1ccc2c(O[C@@H]3C[C@H]4C(=O)N[C@]5(C(=O)NS(=O)(=O)C6(C)CC6)C[C@H]5/C=C\CCCCC[C@H](NC(=O)N5CC(C)(C)C5)C(=O)N4C3)cc(OC(C)C)nc2c1C [Compound 2021, (2R,6S,12Z,13aS,14aR,16aS)-6-{[(3,3-dimethylazetidin-1-yl)carbonyl]amino}-2-{[7-methoxy-8-methyl-2-(propan-2-yloxy)quinolin-4-yl]oxy}-N-[(1-methylcyclopropyl)sulfonyl]-5,16-dioxo-1,2,3,6,7,8,9,10,11,13a,14,15,16,16a-tetradecahydrocyclopropa[e]pyrrolo[1,2-a][1,4]diazacyclopentadecine-14a(5H)-carboxamide]
EC50 [1]: 3 nM
EC50 [2]: 1.6 nM

COc1ccc2c(O[C@@H]3C[C@H]4C(=O)N[C@]5(C(=O)NS(=O)(=O)C6(C)CC6)C[C@H]5/C=C\CCCCC[C@H](NC(=O)c5ccc(C)s5)C(=O)N4C3)cc(OC3CC3)nc2c1C [Compound 1012, (2R,6S,12Z,13aS,14aR,16aS)-2-{[2-(cyclopropyloxy)-7-methoxy-8-methylquinolin-4-yl]oxy}-N-[(1-methylcyclopropyl)sulfonyl]-6-{[(5-methylthiophen-2-yl)carbonyl]amino}-5,16-dioxo-1,2,3,6,7,8,9,10,11,13a,14,15,16,16a-tetradecahydrocyclopropa[e]pyrrolo[1,2-a][1,4]diazacyclopentadecine-14a(5H)-carboxamide]
EC50 [1]: 5.6 nM
EC50 [2]: 0.26 nM

COc1c(Cl)ccc2c(O[C@@H]3C[C@H]4C(=O)N[C@]5(C(=O)NS(=O)(=O)C6(C)CC6)C[C@H]5/C=C\CCCCC[C@H](NC(=O)c5ccn(C)n5)C(=O)N4C3)cc(OC(C)C)nc12 [Compound 1010, (2R,6S,12Z,13aS,14aR,16aS)-2-{[7-chloro-8-methoxy-2-(propan-2-yloxy)quinolin-4-yl]oxy}-N-[(1-methylcyclopropyl)sulfonyl]-6-{[(1-methyl-1H-pyrazol-3-yl)carbonyl]amino}-5,16-dioxo-1,2,3,6,7,8,9,10,11,13a,14,15,16,16a-tetradecahydrocyclopropa[e]pyrrolo[1,2-a][1,4]diazacyclopentadecine-14a(5H)-carboxamide]
EC50 [1]: 7 nM
EC50 [2]: 0.33 nM

COc1ccc2c(O[C@@H]3C[C@H]4C(=O)N[C@]5(C(=O)NS(=O)(=O)C6(C)CC6)C[C@H]5/C=C\CCCCC[C@H](NC(=O)c5cc[nH]n5)C(=O)N4C3)cc(OC(C)C)nc2c1C [Compound 1009, (2R,6S,12Z,13aS,14aR,16aS)-2-{[7-methoxy-8-methyl-2-(propan-2-yloxy)quinolin-4-yl]oxy}-N-[(1-methylcyclopropyl)sulfonyl]-5,16-dioxo-6-[(1H-pyrazol-3-ylcarbonyl)amino]-1,2,3,6,7,8,9,10,11,13a,14,15,16,16a-tetradecahydrocyclopropa[e]pyrrolo[1,2-a][1,4]diazacyclopentadecine-14a(5H)-carboxamide]
EC50 [1]: 1.9 nM
EC50 [2]: 0.49 nM

Cc1c(O)ccc2c(O[C@@H]3C[C@H]4C(=O)N[C@]5(C(=O)NS(=O)(=O)C6CC6)C[C@H]5/C=C\CCCCC[C@H](NC(=O)c5ccn(C)n5)C(=O)N4C3)cc(OC(C)C)nc12 [Compound 1037, (2R,6S,12Z,13aS,14aR,16aS)-N-(cyclopropylsulfonyl)-2-{[7-hydroxy-8-methyl-2-(propan-2-yloxy)quinolin-4-yl]oxy}-6-{[(1-methyl-1H-pyrazol-3-yl)carbonyl]amino}-5,16-dioxo-1,2,3,6,7,8,9,10,11,13a,14,15,16,16a-tetradecahydrocyclopropa[e]pyrrolo[1,2-a][1,4]diazacyclopentadecine-14a(5H)-carboxamide]
EC50 [1]: 4.3 nM
EC50 [2]: 3.7 nM

COc1ccc2c(O[C@@H]3C[C@H]4C(=O)N[C@]5(C(=O)NS(=O)(=O)C6(C)CC6)C[C@H]5/C=C\CCCCC[C@H](NC(=O)N(C)C)C(=O)N4C3)cc(OC3CC3)nc2c1C [Compound 2012, (2R,6S,12Z,13aS,14aR,16aS)-2-{[2-(cyclopropyloxy)-7-methoxy-8-methylquinolin-4-yl]oxy}-6-[(dimethylcarbamoyl)amino]-N-[(1-methylcyclopropyl)sulfonyl]-5,16-dioxo-1,2,3,6,7,8,9,10,11,13a,14,15,16,16a-tetradecahydrocyclopropa[e]pyrrolo[1,2-a][1,4]diazacyclopentadecine-14a(5H)-carboxamide]
EC50 [1]: 9.9 nM
EC50 [2]: 1.8 nM

CCOc1cc(O[C@@H]2C[C@H]3C(=O)N[C@]4(C(=O)NS(=O)(=O)C5(C)CC5)C[C@H]4/C=C\CCCCC[C@H](NC(=O)N(C)C)C(=O)N3C2)c2ccc(OC)c(C)c2n1 [Compound 2006, (2R,6S,12Z,13aS,14aR,16aS)-6-[(dimethylcarbamoyl)amino]-2-[(2-ethoxy-7-methoxy-8-methylquinolin-4-yl)oxy]-N-[(1-methylcyclopropyl)sulfonyl]-5,16-dioxo-1,2,3,6,7,8,9,10,11,13a,14,15,16,16a-tetradecahydrocyclopropa[e]pyrrolo[1,2-a][1,4]diazacyclopentadecine-14a(5H)-carboxamide]
EC50 [1]: 9.9 nM
EC50 [2]: 2.1 nM

COc1c(Cl)ccc2c(O[C@@H]3C[C@H]4C(=O)N[C@]5(C(=O)NS(=O)(=O)C6(C)CC6)C[C@H]5/C=C\CCCCC[C@H](NC(=O)c5cnn(C)n5)C(=O)N4C3)cc(OC(C)C)nc12 [Compound 1011, (2R,6S,12Z,13aS,14aR,16aS)-2-{[7-chloro-8-methoxy-2-(propan-2-yloxy)quinolin-4-yl]oxy}-N-[(1-methylcyclopropyl)sulfonyl]-6-{[(2-methyl-2H-1,2,3-triazol-4-yl)carbonyl]amino}-5,16-dioxo-1,2,3,6,7,8,9,10,11,13a,14,15,16,16a-tetradecahydrocyclopropa[e]pyrrolo[1,2-a][1,4]diazacyclopentadecine-14a(5H)-carboxamide]
EC50 [1]: 8.4 nM
EC50 [2]: 0.63 nM

COc1ccc2c(O[C@@H]3C[C@H]4C(=O)N[C@]5(C(=O)NS(=O)(=O)C6(C)CC6)C[C@H]5/C=C\CCCCC[C@H](NC(=O)N5CCC(F)(F)C5)C(=O)N4C3)cc(OC(C)C)nc2c1C [Compound 2004, (2R,6S,12Z,13aS,14aR,16aS)-6-{[(3,3-difluoropyrrolidin-1-yl)carbonyl]amino}-2-{[7-methoxy-8-methyl-2-(propan-2-yloxy)quinolin-4-yl]oxy}-N-[(1-methylcyclopropyl)sulfonyl]-5,16-dioxo-1,2,3,6,7,8,9,10,11,13a,14,15,16,16a-tetradecahydrocyclopropa[e]pyrrolo[1,2-a][1,4]diazacyclopentadecine-14a(5H)-carboxamide]
EC50 [1]: 8.2 nM
EC50 [2]: 1.6 nM

COc1ccc2c(O[C@@H]3C[C@H]4C(=O)N[C@]5(C(=O)NS(=O)(=O)C6CC6)C[C@H]5/C=C\CCCCC[C@H](NC(=O)N5CC(C)(C)C5)C(=O)N4C3)cc(OC(C)C)nc2c1C [Compound 2011, (2R,6S,12Z,13aS,14aR,16aS)-N-(cyclopropylsulfonyl)-6-{[(3,3-dimethylazetidin-1-yl)carbonyl]amino}-2-{[7-methoxy-8-methyl-2-(propan-2-yloxy)quinolin-4-yl]oxy}-5,16-dioxo-1,2,3,6,7,8,9,10,11,13a,14,15,16,16a-tetradecahydrocyclopropa[e]pyrrolo[1,2-a][1,4]diazacyclopentadecine-14a(5H)-carboxamide]
EC50 [1]: 6.1 nM
EC50 [2]: 3.9 nM

CCOc1cc(O[C@@H]2C[C@H]3C(=O)N[C@]4(C(=O)NS(=O)(=O)C5(C)CC5)C[C@H]4/C=C\CCCCC[C@H](NC(=O)N4CCC4)C(=O)N3C2)c2ccc(OC)c(C)c2n1 [Compound 2015, (2R,6S,12Z,13aS,14aR,16aS)-6-[(azetidin-1-ylcarbonyl)amino]-2-[(2-ethoxy-7-methoxy-8-methylquinolin-4-yl)oxy]-N-[(1-methylcyclopropyl)sulfonyl]-5,16-dioxo-1,2,3,6,7,8,9,10,11,13a,14,15,16,16a-tetradecahydrocyclopropa[e]pyrrolo[1,2-a][1,4]diazacyclopentadecine-14a(5H)-carboxamide]
EC50 [1]: 5.4 nM
EC50 [2]: 0.67 nM

COc1ccc2c(O[C@@H]3C[C@H]4C(=O)N[C@]5(C(=O)NS(=O)(=O)C6(C)CC6)C[C@H]5/C=C\CCCCC[C@H](NC(=O)c5ccn(C(C)C)n5)C(=O)N4C3)cc(OC(C)C)nc2c1C [Compound 1021, (2R,6S,12Z,13aS,14aR,16aS)-2-{[7-methoxy-8-methyl-2-(propan-2-yloxy)quinolin-4-yl]oxy}-N-[(1-methylcyclopropyl)sulfonyl]-5,16-dioxo-6-({[1-(propan-2-yl)-1H-pyrazol-3-yl]carbonyl}amino)-1,2,3,6,7,8,9,10,11,13a,14,15,16,16a-tetradecahydrocyclopropa[e]pyrrolo[1,2-a][1,4]diazacyclopentadecine-14a(5H)-carboxamide]
EC50 [1]: 4.3 nM
EC50 [2]: 0.24 nM

COc1ccc2c(O[C@@H]3C[C@H]4C(=O)N[C@]5(C(=O)NS(=O)(=O)C6(C)CC6)C[C@H]5/C=C\CCCCC[C@H](NC(=O)c5ccn(C)n5)C(=O)N4C3)cc(OC(C)C)nc2c1OC [Compound 1005, (2R,6S,12Z,13aS,14aR,16aS)-2-{[7,8-dimethoxy-2-(propan-2-yloxy)quinolin-4-yl]oxy}-N-[(1-methylcyclopropyl)sulfonyl]-6-{[(1-methyl-1H-pyrazol-3-yl)carbonyl]amino}-5,16-dioxo-1,2,3,6,7,8,9,10,11,13a,14,15,16,16a-tetradecahydrocyclopropa[e]pyrrolo[1,2-a][1,4]diazacyclopentadecine-14a(5H)-carboxamide]
EC50 [1]: 2.5 nM
EC50 [2]: 2 nM
